Earlier results in US7097855B1, “Transdermal thermal polymerization” (Massachusetts Institute of Technology, priority 2000, dated 2006).

Experiments:
[1] = at 20° C.

## CC(C)(N=NC(C)(C)C1=NCCN1)C1=NCCN1.Cl.Cl [AZODIA HCl, 2,2′-azobis-(N,N′-dimethyleneisobutyramidine) dihydrochloride]
rat; female
  LD50 (oral, rat), female: 2800 mg/kg
rat; male
  LD50 (oral, rat), male: 3200 mg/kg
[1]
  water solubility: 35.2 g/100 g solvent
